Data taken from PMC9656319, “Pharmacokinetics and Tissue Distribution of Coumarins from Tagetes lucida in an LPS-Induced Neuroinflammation Model” (Plants, 2022).

Tests used:
[1] = Tissue distribution in the brain after oral hexanic extract of Tagetes lucida, healthy and LPS-administrated mice; assay type: in vivo, ICR mice; settings: after the initial absorption process
Description: After blood sampling, the mice were sacrificed in a chamber with chloroform by an overdose of anesthesia. The brain, kidney, and spleen were quickly removed and rinsed with saline solution, fresh weight was recorded, and immediately placed on ice. Subsequently, the organs were freeze-dried, grounded, and weighted. The lyophilized organs were individually suspended in methanol in a 1:1 volume: dry weight ratio for 24 h, then sonicated for 5 min and centrifuged at 14,000 rpm for 7 min. The supernatants were recovered in clean tubes and stored at −70 °C until their use.
(§1) One hundred microliters of plasma and organs samples, spiked with calibration and QC concentration or samples from the pharmacokinetic study, were mixed with 300 µL of acetonitrile containing the IS at 10 µg/mL for protein precipitation, and vortexed for 3 min. Then, 200 µL of dichloromethane were added, for liquid–liquid extraction of the bioactive compounds, and vortexed for 5 min. The mixture was centrifuged at 14,000 rpm for 10 min, and the extracted organic layers were placed in new tubes, until completely dry at room temperature. For quantitative analysis, samples were resuspended in 100 µL of methanol, transferred to sampling vials, and injected into the chromatographic system, described below.
A pharmacokinetic study was carried out in sixty mice, divided in six subgroups, according to sample collection times. An acute inflammation process by the intraperitoneal (i.p.) administration of LPS at 2 mg/kg was induced in half of the mice per group, while the other half received an i.p. injection of saline solution. Ten min after the damage was induced, the mice were administered with an oral dose of 10 mg/kg of the bioactive fraction dissolved in a 1% Tween-20 aqueous solution. […]
To evaluate the distribution in the tissues, bioactive coumarins were quantified in the lyophilized organs, and concentrations were adjusted to the volumes of liquid obtained by the difference between the dry and fresh weights of each tissue to simulate a distribution approximation of the compounds by tissue system.

[2] = Pharmacokinetic study in plasma after oral hexanic extract of Tagetes lucida, healthy and LPS-damaged mice; assay type: in vivo, ICR mice; settings: for Cmax / AUC(0-inf) / MRT / Tmax / half-life / AUC(0-t): ICR, mouse, po, 10 mg/kg; for Cmax / AUC(0-inf) / MRT / Tmax / half-life / AUC(0-t) / Cl/F: plasma, 10 mg/kg oral hexanic extract, mean ± SEM (n = 5); for Cmax: non-compartmental; for AUC(0-t): to 6 h
Description: The optimized HPLC-validated method for the quantification of coumarins present in the hexane extract of T. lucida was used to evaluate the concentration profiles over time in the plasma, brain, kidney, and spleen biological matrices after an oral administration of 10 mg/kg of the extract.
Blood samples were obtained from the retro-orbital sinus of mice and collected in heparinized tubes. Plasma was separated by centrifugation at 3500 rpm for 5 min and stored in new Eppendorf tubes at −70 °C, until further processing.
as §1
A pharmacokinetic study was carried out in sixty mice, divided in six subgroups, according to sample collection times. An acute inflammation process by the intraperitoneal (i.p.) administration of LPS at 2 mg/kg was induced in half of the mice per group, while the other half received an i.p. injection of saline solution. Ten min after the damage was induced, the mice were administered with an oral dose of 10 mg/kg of the bioactive fraction dissolved in a 1% Tween-20 aqueous solution. Blood and tissue samples were obtained and processed at 0, 0.25, 0.75, 1.5, 2, 4, and 6 h post-dosing, as indicated in the “Samples collection” and “Plasma and tissue samples processing” sections.
Pharmacokinetic parameters of PE, SC, DF, HR, and PU in plasma were calculated by PKSolver software.

[3] = Stability of the analytes in spiked plasma, brain, kidney and spleen matrices (autosampler, long-term, freeze-thaw); assay type: physicochemical, mice; settings: for Stability Autosampler RE (%): processed samples in autosampler vials 24 h room temperature; for Stability Freeze-Thaw RE (%): three cycles (−4 °C to 25 °C); for Stability Long-Term RE (%): −70 °C for 30 days
Description: The stability of the compounds obtained from each enriched matrices at the QC concentrations was evaluated under different conditions that covered the processing, handling, and storage phases that could be developed throughout the study.
Individual stock solutions of PE, SC, DF, HR, PU, and rutin (IS) were prepared separately in methanol (1 mg/mL) and stored at −4 °C until use. From the stocks, a working solution in methanol was prepared at a concentration of 200 µg/mL of each coumarin. Blank plasma or organs supernatant samples (80 µL) were spiked with 20 µL of serial dilutions of working solution to obtain calibration curves ranging between 0.156, 0.312, 0.625, 1.25, 2.5, 5, 10, 20, and 40 µg/mL of each coumarin. Quality control (QC) samples were prepared at three levels of 0.3 (low), 3 (medium), and 30 (high) µg/mL for each coumarin.
The stability of the analytes in plasma, brain, kidneys, and spleen was evaluated by the analyzed concentrations of QC subjected to three different conditions. Short-term stability was determined by analysis of samples processed in the autosampler vials at 24 h at room temperature. Long-term stability was tested on samples stored at −70 °C for 30 days. Freeze-thaw stability was determined after three cycles (−4 °C to 25 °C) on three consecutive days.

Q: Which “time at which the highest concentration in the brain tissue is reached” value [1] does the source give for `CC(C)=CCOc1ccc2ccc(=O)oc2c1` [PU, 7-O-prenylumbelliferone] here?
A: 15 min

Q: And the Cmax ([2]; LPS-damaged ICR mice (LPS 2 mg/kg i.p.))?
A: 690 ± 70 ng/mL

Q: What about the AUC(0-inf) ([2]; LPS-damaged ICR mice) of the same compound?
A: 2240 ± 260 ng·h/mL

Q: And the MRT ([2]; LPS-damaged ICR mice)?
A: 2.68 ± 0.14 h

Q: What about the Tmax ([2]; LPS-damaged ICR mice) of the same compound?
A: 1.05 ± 0.31 h

Q: What about the half-life ([2]; LPS-damaged ICR mice) of the same compound?
A: 0.95 ± 0.1 h

Q: And the AUC(0-t) ([2]; LPS-damaged ICR mice)?
A: 2220 ± 260 ng·h/mL

Q: And the AUC(0-inf) ([2]; healthy ICR mice)?
A: 1520 ± 120 ng·h/mL

Q: And the MRT ([2]; healthy ICR mice)?
A: 2.15 ± 0.11 h

Q: What about the Tmax ([2]; healthy ICR mice) of the same compound?
A: 1.55 ± 0.23 h

Q: What about the half-life ([2]; healthy ICR mice) of the same compound?
A: 0.92 ± 0.06 h

Q: What about the Cmax ([2]; healthy ICR mice) of the same compound?
A: 560 ± 50 ng/mL

Q: What about the AUC(0-t) ([2]; healthy ICR mice) of the same compound?
A: 1490 ± 110 ng·h/mL

Q: What about the “time of concentration peak in plasma after administration of the extract” value ([2]; LPS-treated mice, Figure 3e) of the same compound?
A: up to 4 h

Q: And the Cl/F ([2]; LPS-damaged ICR mice)?
A: 46.95 ± 5.03 (mg/kg)/(μg/mL)/h

Q: And the Cl/F ([2]; healthy ICR mice)?
A: 67.37 ± 5.33 (mg/kg)/(μg/mL)/h

Q: And the “Stability Autosampler RE (%)” value ([3]; brain, nominal 0.3 µg/mL)?
A: 2.13%

Q: What about the “Stability Freeze-Thaw RE (%)” value ([3]; brain, nominal 0.3 µg/mL) of the same compound?
A: -6.54%

Q: And the “Stability Long-Term RE (%)” value ([3]; brain, nominal 0.3 µg/mL)?
A: 3.45%

Q: What about the “Stability Autosampler RE (%)” value ([3]; brain, nominal 3.0 µg/mL) of the same compound?
A: 1.80%

Q: And the “Stability Freeze-Thaw RE (%)” value ([3]; brain, nominal 3.0 µg/mL)?
A: -4.49%

Q: What about the “Stability Long-Term RE (%)” value ([3]; brain, nominal 3.0 µg/mL) of the same compound?
A: -5.42%

Q: And the “Stability Autosampler RE (%)” value ([3]; brain, nominal 30.0 µg/mL)?
A: 4.57%

Q: And the “Stability Freeze-Thaw RE (%)” value ([3]; brain, nominal 30.0 µg/mL)?
A: -1.74%

Q: What about the “Stability Long-Term RE (%)” value ([3]; brain, nominal 30.0 µg/mL) of the same compound?
A: -4.61%

Q: And the “Stability Autosampler RE (%)” value ([3]; kidney, nominal 0.3 µg/mL)?
A: 7.10%

Q: What about the “Stability Freeze-Thaw RE (%)” value ([3]; kidney, nominal 0.3 µg/mL) of the same compound?
A: 3.61%

Q: What about the “Stability Long-Term RE (%)” value ([3]; kidney, nominal 0.3 µg/mL) of the same compound?
A: 5.54%

Q: What about the “Stability Autosampler RE (%)” value ([3]; kidney, nominal 3.0 µg/mL) of the same compound?
A: 5.21%

Q: What about the “Stability Freeze-Thaw RE (%)” value ([3]; kidney, nominal 3.0 µg/mL) of the same compound?
A: 2.01%

Q: And the “Stability Long-Term RE (%)” value ([3]; kidney, nominal 3.0 µg/mL)?
A: 8.68%

Q: And the “Stability Autosampler RE (%)” value ([3]; kidney, nominal 30.0 µg/mL)?
A: 1.66%

Q: What about the “Stability Freeze-Thaw RE (%)” value ([3]; kidney, nominal 30.0 µg/mL) of the same compound?
A: -1.02%

Q: What about the “Stability Long-Term RE (%)” value ([3]; kidney, nominal 30.0 µg/mL) of the same compound?
A: 6.46%

Q: And the “Stability Autosampler RE (%)” value ([3]; plasma, nominal 0.3 µg/mL)?
A: -6.02%

Q: And the “Stability Freeze-Thaw RE (%)” value ([3]; plasma, nominal 0.3 µg/mL)?
A: -9.54%

Q: What about the “Stability Long-Term RE (%)” value ([3]; plasma, nominal 0.3 µg/mL) of the same compound?
A: -8.22%

Q: And the “Stability Autosampler RE (%)” value ([3]; plasma, nominal 3.0 µg/mL)?
A: -11.68%

Q: And the “Stability Freeze-Thaw RE (%)” value ([3]; plasma, nominal 3.0 µg/mL)?
A: -9.78%

Q: And the “Stability Long-Term RE (%)” value ([3]; plasma, nominal 3.0 µg/mL)?
A: -10.56%

Q: What about the “Stability Autosampler RE (%)” value ([3]; plasma, nominal 30.0 µg/mL) of the same compound?
A: -9.86%

Q: And the “Stability Freeze-Thaw RE (%)” value ([3]; plasma, nominal 30.0 µg/mL)?
A: -5.10%

Q: What about the “Stability Long-Term RE (%)” value ([3]; plasma, nominal 30.0 µg/mL) of the same compound?
A: -4.81%

Q: And the “Stability Autosampler RE (%)” value ([3]; spleen, nominal 0.3 µg/mL)?
A: -0.09%

Q: What about the “Stability Freeze-Thaw RE (%)” value ([3]; spleen, nominal 0.3 µg/mL) of the same compound?
A: -8.53%

Q: What about the “Stability Long-Term RE (%)” value ([3]; spleen, nominal 0.3 µg/mL) of the same compound?
A: -6.92%

Q: What about the “Stability Autosampler RE (%)” value ([3]; spleen, nominal 3.0 µg/mL) of the same compound?
A: -4.98%

Q: What about the “Stability Freeze-Thaw RE (%)” value ([3]; spleen, nominal 3.0 µg/mL) of the same compound?
A: 2.88%

Q: What about the “Stability Long-Term RE (%)” value ([3]; spleen, nominal 3.0 µg/mL) of the same compound?
A: 7.56%

Q: And the “Stability Autosampler RE (%)” value ([3]; spleen, nominal 30.0 µg/mL)?
A: -2.63%

Q: And the “Stability Freeze-Thaw RE (%)” value ([3]; spleen, nominal 30.0 µg/mL)?
A: 2.27%

Q: What about the “Stability Long-Term RE (%)” value ([3]; spleen, nominal 30.0 µg/mL) of the same compound?
A: 4.26%
